Reference: paper PMC12603070, “A high-throughput screening approach to discover potential colorectal cancer chemotherapeutics: repurposing drugs to identify novel disruptors of 14-3-3 proteins” (Cell Death & Disease, 2025)
Read-outs that look alike come from different tables or passages of the source.

What was measured:
[1] = molecular target: T1, 14-3-3ζ:BAD-112-136F interactions (Homo sapiens, UniProt P63104); experiment: BRET sensor screen for disruption of 14-3-3ζ-Rluc8:BAD-112-136F-mCitrine in living NIH-3T3 cells; type: cell-based, murine; parameters: inhibition: dose or concentration left out as unconfirmed; details: for inhibition / inhibition at 20 µM: NIH3T3, 3 h; for inhibition: NIH-3T3 cells
T1 construct: expressed in transfected cells; host or cells: NIH-3T3 fibroblasts, bi-directional pBI-CMV1 plasmid
T1 sequence (P63104 1-245): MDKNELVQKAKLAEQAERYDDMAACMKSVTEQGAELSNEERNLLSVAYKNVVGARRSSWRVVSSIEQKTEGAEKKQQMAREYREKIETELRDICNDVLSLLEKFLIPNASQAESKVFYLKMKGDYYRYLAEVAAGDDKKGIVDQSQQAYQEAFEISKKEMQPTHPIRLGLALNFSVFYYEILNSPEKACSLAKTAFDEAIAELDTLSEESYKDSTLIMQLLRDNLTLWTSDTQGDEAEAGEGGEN
Method in brief: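 NIH-3T3 cells were transfected with the BRET sensor two days beforehand, then replated on poly-L-ornithine-coated plates and grown 24 h at 37 °C. Medium was then replaced with Krebs buffer (pH 7.4). Z′-score was calculated to judge HTS robustness.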

NIH-3T3 cells = experiment: Hoechst/propidium iodide cell death assay in NIH-3T3; type: cell-based; details: for cytotoxicity at 20 µM: Mus musculus, NIH3T3, 24 h, 24 h, read-out: Percentage of cell death % 24h NIH3t3
Description: (§1) A high-content imaging system (PerkinElmer; Operetta CLS), was used to quantify cell death and apoptosis by calculating the number of propidium iodide-positive cells relative to Hoechst-positive cells, and the number of Annexin V-positive cells relative to Hoechst-positive cells, respectively.

HT-29 cells = experiment: Hoechst/propidium iodide cell death assay in HT-29; type: cell-based, human; details: for %Cell death HT-29: time not given; for cytotoxicity at 20 µM: Homo sapiens
Description: as §1

Caco-2 cells = type: cell-based
Description: as §1

His-14-3-3ζ = molecular target: T2, His-14-3-3ζ (Homo sapiens, UniProt P63104); experiment: Surface plasmon resonance (SPR) on immobilized His-14-3-3ζ; type: binding; details: for kd: SPR dissociation rate; for BI ([Signal (RU)]): SPR fit parameter, per curve; for kon: pH 7.8, SPR association rate, read-out: ka
T2 construct: made in house; host or cells: Escherichia coli BL21 LOBSTR-RIL
T2 sequence (P63104 1-245): T1 sequence (P63104 1-245)
Method: The published protocol of Higuchi & Ottmann as followed with modifications to express 14-3-3ζ [44]. Escherichia coli BL21 LOBSTR-RIL cells were transformed with a plasmid encoding His-14-3-3ζ. The transformed cells were grown in TB medium containing appropriate antibiotic at 37 °C with shaking at 200 rpm until the culture reached an optical density of 0.6–0.8 at 600 nm (OD600). Protein expression was induced by the addition of isopropyl β-D-1-thiogalactopyranoside to a final concentration of 0.4 mM. Subsequently, the temperature was decreased to 16 °C and the culture incubated for another 16 h. Cells were harvested by centrifugation at 7000 × g for 20 min at 21 °C. The supernatant was discarded, and the cell pellet containing 14-3-3ζ was mixed and resuspended in lysis buffer (50 mM Tris, pH 7.80), 500 mM NaCl, 5 mM imidazole, 5% glycerol, 1 mM PMSF & 1 mM Benzamidine. Cells were lysed by sonication on ice using a probe sonicator (20 cycles of 10 s on, 20 s off, amplitude 70%). The lysate was centrifuged at 30,000 × g for 30 min at 4 °C to remove cell debris. The supernatant was collected for further purification. The 14-3-3ζ was isolated from the lysate by affinity chromatography (Ni-NTA beads, Qiagen). For further purification, the eluant was subjected to size exclusion chromatography using a Superdex 75 gel filtration column (HiLoad 16/600, GE Healthcare), pre-equilibrated with SEC buffer (20 mM Tris, pH 7.5, 150 mM NaCl, 1 mM TCEP). The protein solution was concentrated by ultrafiltration, flash frozen, and stored at −80 °C.
The general protocol for evaluating 14-3-3ζ was adapted from Hartman et al. and modified for our instrument and sensors. The SPR experiments were performed using a Open surface plasmon resonance instrument (OpenSPR^TM, Nicoya, Kitchener-Waterloo, Canada), and high sensitivity-nitrilotriacetic acid (HS-NTA) sensors. The sensor chip surface was first activated with 40 mM of NiCl2 at a flow rate of 20 μL/min using 20 mM HEPES pH 7.8, 150 mM NaCl and 1% DMSO as the running buffer. All running buffers were filtered and degassed prior to use. 100 μg/mL His-14-3-3ζ protein in 20 mM HEPES pH 7.8, 150 mM NaCl and 1% DMSO was injected at 8 μL/min flow rate for 800 s contact time and immobilized until the instrument registered 2900–3500 RU (activation and protein immobalization spectrograms are provided as Supplementary Fig. 10). Drugs were dissolved in DMSO and were diluted with 20 mM HEPES pH 7.8, 150 mM NaCl (final DMSO concentration of 1% v/v) and were injected at a flow rate of 50 μL/min. Single-cycle kinetics were applied for KD evaluation and binding affinity using TraceDrawer v.1.8.1 (Ridgeview Instruments AB).

HT-29 and Caco-2 cells = experiment: Annexin V/propidium iodide apoptosis and caspase dependence (Z-VAD-FMK) in HT-29 and Caco-2; type: cell-based, human; details: for Kinetics of induction of cell death and apoptosis: time courses of PI and Annexin V incorporation, HT-29 and Caco-2, 5 and 10 µM
Method: Cells were plated at a density of 20,000 cells/well into 96-well plates (PerkinElmer; #6055302) and incubated overnight at 37 °C before the addition of the drugs. One hour prior to imaging, Hoechst 33342 (Invitrogen, #H3570) and propidium iodide (Invitrogen; #P3566) were added to the wells to achieve final concentrations of 50 ng/ml and 0.5 μg/ml, respectively. To measure apoptosis, AlexaFluor 488-conjugated Annexin V (ThermoFisher, Massachusetts, USA; #A13201) was also added at a dilution of 1:400 from the commercial stock. A high-content imaging system (PerkinElmer; Operetta CLS), was used to quantify cell death and apoptosis by calculating the number of propidium iodide-positive cells relative to Hoechst-positive cells, and the number of Annexin V-positive cells relative to Hoechst-positive cells, respectively. To assess caspase-dependent apoptosis, cells were pre-treated for 30 min with the caspase inhibitor Z-VAD-FMK (BD Biosciences, New Jersey, USA; #550377; 20 μM) or the negative control Z-FA-FMK (BD Biosciences; #550411; 20 μM) prior to the incubation of drugs.

[2] = hits from the primary screen, read-out: BRET reduction on NIH-3T3
[3] = NIH-3T3 expressing BRET sensor, 20 µM, 3 h, read-out: BRET reduction on NIH-3T3
[4] = HT-29, 24 h, 20 µM, 24 h, read-out: Percentage of cell death % 24h HT-29
[5] = HT-29, 48 h, HT-29, 48h, 20 μM, read-out: Percentage of cell death % 48h, HT-29
[6] = lomitapide-treated Caco-2 cells, 10 μM, 48 h
[7] = SPR fit, value repeated per curve
[8] = SPR, immobilized His-14-3-3ζ, single-cycle kinetics, 1% DMSO

| Compound | inhibition [1, 2] [%] | inhibition at 20 µM [1, 3] [%] | cytotoxicity at 20 µM (NIH-3T3 cells) [%] | Percentage of cell death % 48h, NIH3T3 (NIH-3T3 cells) [%] | %Cell death HT-29 (HT-29 cells; HT-29) [%] | cytotoxicity at 20 µM (HT-29 cells; [4]) [%] | cytotoxicity at 20 µM (HT-29 cells; [5]) [%] | Bmax ([Signal (RU)]) (His-14-3-3ζ; SPR curve at 0.0009 mM ligand) [RU] | Bmax ([Signal (RU)]) (His-14-3-3ζ; SPR curve at 0.01 mM ligand) [RU] | Bmax ([Signal (RU)]) (His-14-3-3ζ; SPR curve at 0.02 mM ligand) [RU] | kd (His-14-3-3ζ; value repeated per curve) [s⁻¹] | BI ([Signal (RU)]) (His-14-3-3ζ) [RU] | Kd (His-14-3-3ζ; [7]) [nM] | Kd (His-14-3-3ζ; [8]) [nM] | kon (His-14-3-3ζ; value repeated per curve) [M⁻¹ s⁻¹] | %Cell death Caco-2 (Caco-2 cells; Caco-2) [%] | Bmax ([Signal (RU)]) (His-14-3-3ζ; SPR curve at 0.005 mM ligand) [RU] | Bmax ([Signal (RU)]) (His-14-3-3ζ; SPR curve at 0.007 mM ligand) [RU] | Kinetics of induction of cell death and apoptosis (HT-29 and Caco-2 cells) | also measured |
| --- | --- | --- | --- | --- | --- | --- | --- | --- | --- | --- | --- | --- | --- | --- | --- | --- | --- | --- | --- | --- |
| O=C(NC1CCN(CCCCC2(C(=O)NCC(F)(F)F)c3ccccc3-c3ccccc32)CC1)c1ccccc1-c1ccc(C(F)(F)F)cc1 [Lomitapide] | 40.8 | 40.8 | 90.2 | 77.6841 | 72.9 | 29.5 | 72.9 | 55.11 | 270.8 | 311.25 | 0.0109 | 0.1 | 858 | 890 | 12700 | – | – | – | – | Percentage of cell death % 24h CACO-2 (Caco-2 cells; 20 µM, 24 h): 66.0871%; Percentage of cell death % 48h, Caco-2 (Caco-2 cells; Caco-2, 48h, 20 μM): 81.7295%; %Cell death Caco-2 (Caco-2 cells; Caco-2, time not given, text says 48 h): 81.7%; Effect of Z-VAD-FMK on propidium iodide incorporation (Caco-2 cells; [6]): no effect; Bmax ([Signal (RU)]) (His-14-3-3ζ; SPR curve at 0.003 mM ligand): 159.43 RU; Kd (His-14-3-3ζ; SPR, immobilized 14-3-3ζ): 900 nM; Effect of Z-VAD-FMK on annexin V incorporation (HT-29 and Caco-2 cells; [6]): preventing annexin V incorporation |
| OC1(c2ccc(Cl)c(C(F)(F)F)c2)CCN(CCCC(c2ccc(F)cc2)c2ccc(F)cc2)CC1 [Penfluridol] | 53.8 | 53.8 | 85.7 | 79.942 | 92.2 | 77.5 | 92.2 | 99.25 | 100.4 | – | 0.00974 | 0.1 | 1350 | 1350 | 7240 | 90.0 | 72.64 | 80.65 | more rapidly than lomitapide | – |
| CC(C)(C)c1ccc(C(O)CCCN2CCC(C(O)(c3ccccc3)c3ccccc3)CC2)cc1 (stereo not drawn) [Terfenadine] | 45.6 | 45.6 | 85.2 | 73.0215 | 89.6 | 81.9 | 89.6 | 166.72 | 179.00 | – | 0.0185 | 0.1 | 2960 | 2960 | 6260 | 79.7 | 144.99 | 177.73 | more rapidly than lomitapide | – |
| CCCCCCCCc1ccc(CCC(N)(CO)CO)cc1 [Fingolimod (FTY720), Fingolimod] | – | – | 89.8 | 86.4299 | 69.1 | 13.5 | 69.1 | 2.87 | – | 342.32 | 0.00856 | 0.1 | 10600 | 10600 | 807 | 67.9 | 227.4 | – | – | inhibition at 20 µM ([1]; read-out: BRET reduction on NIH-3T3, NIH-3T3 cells, hits from the primary screen): 34.9%; inhibition at 20 µM ([1]; read-out: BRET reduction on NIH-3T3, NIH-3T3 expressing BRET sensor, 20 µM, 3 h): 34.9%; Effect on BRET, dose-response ([1]; NIH-3T3 expressing BRET sensor, 3 h post-treatment): significantly reduced BRET in a dose-dependent manner |
